Numbers after ± are expanded uncertainties.
Tests used:
[1] = Liquid; for Normal boiling temperature: Ebulliometric method (Recirculating still); for mass density: 293.15 K, 101.33 kPa
[2] = refractive index (Na D-line) (dimensionless); settings: 293.15 K; 101.33 kPa; Liquid; Standard Abbe refractometry

| SMILES | Normal boiling temperature [1] [°C] | refractive index [2] | mass density [1] [kg/m3] |
| --- | --- | --- | --- |
| O [water] | 100.08 ± 0.1 | 1.3326 ± 0.0008 |  |
| O=C1CCCCC1 [cyclohexanone] | 155.54 ± 0.1 | 1.451 ± 0.0008 | 947.3 ± 0.6 |
| CCC(=O)O [propanoic acid] | 141.0 ± 0.1 | 1.3811 ± 0.0008 | 992.7 ± 0.5 |

— the NIST ThermoML archive (doi:10.1016/j.jct.2005.03.017)
